Experimental data taken from paper PMC11004567 (Heliyon, 2024).
In brackets after ≈: the same amount, converted by molar mass. Like-named read-outs stand apart in the source and are kept apart here.

Legend:
[1] = test system: Staphylococcus aureus ATCC 29213; assay: In vitro antibacterial evaluation, broth dilution micro-method MIC; format: cell-based
[2] = test system: VRE 368, vancomycin-resistant E. faecalis; assay: In vitro anti-enterococcal MIC, broth dilution micro-method; format: cell-based, Enterococcus faecalis; conditions: 24 h, read-out: MIC VRE 368
[3] = test system: VRE 342B, vancomycin-resistant E. faecalis; assay: as above; format: cell-based, Enterococcus faecalis; conditions: 24 h, read-out: MIC VRE 342B
[4] = test system: MRSA1, methicillin-resistant S. aureus clinical isolate SA 3202; assay: In vitro antibacterial evaluation, broth dilution micro-method MIC; format: cell-based; conditions: Staphylococcus aureus, MRSA, read-out: MIC MRSA1
[5] = test system: MRSA3, methicillin-resistant S. aureus clinical isolate 63718; assay: as above; format: cell-based; conditions: Staphylococcus aureus, read-out: MIC MRSA3
[6] = test system: VRE 725 B, vancomycin-resistant E. faecalis; assay: In vitro anti-enterococcal MIC, broth dilution micro-method; format: cell-based, Enterococcus faecalis; conditions: 24 h, read-out: MIC VRE 725 B
[7] = test system: MRSA2, methicillin-resistant S. aureus clinical isolate SA 630; assay: In vitro antibacterial evaluation, broth dilution micro-method MIC; format: cell-based; conditions: Staphylococcus aureus, MRSA, read-out: MIC MRSA2
S. aureus ATCC 29213 [8] = assay: MTT assay, inhibition of respiratory activity; format: cell-based, Staphylococcus aureus; conditions: at 16 × MIC
E. faecalis ATCC 29213 = assay: In vitro anti-enterococcal MIC, broth dilution micro-method; format: cell-based; conditions: Enterococcus faecalis, ATCC29213, 24 h, read-out: MIC E. faecalis ATCC 29213
[9] = test system: human monocytic leukemia cell line THP-1; assay: In vitro cell viability analysis; format: cell-based; conditions: read-out: IC50 THP-1
M. kansasii DSM 44162 = assay: In vitro antimycobacterial evaluation, broth dilution micro-method; format: cell-based; conditions: Mycobacterium kansasii, DSM44162, read-out: MIC M. kansasii DSM 44162
[10] = Lipophilicity log k by RP-HPLC; format: physicochemical; conditions: logarithm of capacity factor, experimentally determined by RP-HPLC
S. aureus ATCC 29213 [11] = assay: Dynamics of antibacterial effect; format: cell-based, Staphylococcus aureus; conditions: time-kill curves, 1×, 2× (SB3–Cu also 4×) MIC, up to 24 h
[12] = test system: non-cancer human renal proximal tubule epithelial TH-1 cells; conditions: read-out: IC50 TH-1; cytotoxicity, non-cancer renal TH-1 cells; cited from earlier work
[13] = test system: breast cancer MCF-7 cells; conditions: through creation of ROS, disruption of mitochondrial membrane potential; cited from earlier work
[14] = test system: mature S. aureus ATCC 29213 biofilm; assay: Biofilm disruption / eradication of mature biofilm; format: cell-based, Staphylococcus aureus
[15] = ATCC29213, 24 h, read-out: MIC SA

Structure (SMILES) | MIC [1, 15] [µg/mL] | MIC ([1]; ATCC29213, read-out: MIC SA) [µM] | MIC [2] [µg/mL] | MIC [3] [µg/mL] | MIC ([4]; 24 h) [µg/mL] | MIC [4] [µM] | MIC ([5]; 24 h) [µg/mL] | MIC [5] [µM] | MIC [6] [µg/mL] | MIC ([7]; 24 h) [µg/mL] | MIC [7] [µM] | MIC (E. faecalis ATCC 29213) [µg/mL] | IC50 ([9]; Homo sapiens, THP-1, 24 h) [µM] | log k [10] | IC50 [12] [µM] | also measured
CC1(C)S[C@@H]2[C@H](NC(=O)[C@H](N)c3ccccc3)C(=O)N2[C@H]1C(=O)O [AMP, ampicillin, reference compound] | 2 | 5.7 | 4 (≈ 11.4 µM) | 4 (≈ 11.4 µM) | > 16 | > 45.8 | 16 | 45.8 | 4 (≈ 11.4 µM) | > 16 | > 45.8 | 1 (≈ 2.86 µM) |  |  |  | S. aureus Respiration Inhibition (S. aureus ATCC 29213 [8]): 81.9%
N.N.[Cl][Pt][Cl] [CPT, cisplatin, reference compound] |  |  |  |  |  |  |  |  |  |  |  |  |  |  |  | IC50 ([9]; cell viability, CCK-8, 24 h, ± SD, n = 6): 16.1 ± 1.3 µM
NNC(=O)c1ccncc1 [INH, isoniazid] |  |  |  |  |  |  |  |  |  |  |  |  |  |  |  | MIC (M. kansasii DSM 44162): 29.1 µM (≈ 3.99 µg/mL)
O=C1c2ccccc2NC(c2cc([N+](=O)[O-])ccc2O)N1/N=C/c1cc([N+](=O)[O-])ccc1O (stereo not shown) [SB3, 3-[(E)-(2-hydroxy-5-nitrobenzylidene)amino]-2-(2-hydroxy-5-nitrophenyl)-2,3-dihydroquinazolin-4(1H)-one] | 32 | 71.2 | > 256 | > 256 | 64 | 141 | 64 | 141 | > 256 | 16 | 35.6 | 256 (≈ 570 µM) | 12.7 ± 1.2 | 0.6022 | 432 | Mode of antibacterial action (bactericidal vs bacteriostatic) (S. aureus ATCC 29213 [11]): only bacteriostatically; Apoptosis of MCF-7 cells [13]: induces apoptosis; Reduction of biofilm viability ([14]; at 0.5 × MIC): no effect; Eradication activity on mature biofilm ([14]; at 1 × MIC): 81.7 ± 13.7%; Concentration eradicating 80% of S. aureus biofilm ([14]; mature biofilm, 24 h treatment): 1 × MIC
COc1cccc(/C=N/N2C(=O)c3ccccc3NC2c2cccc(OC)c2O)c1O (stereo not shown) [SB8, 3-[(E)-(2-hydroxy-3-methoxybenzylidene)amino]-2-(2-hydroxy-3-methoxyphenyl)-2,3-dihydroquinazolin-4(1H)-one] | > 256 |  | > 256 | > 256 | > 256 |  | > 256 |  | > 256 | > 256 |  | > 256 | > 50 | 0.1689 | > 1000 | 
